Laboratory results as given in paper PMC12522199 (RSC Advances, 2025).

Molecular target: HamA (Burkholderia cenocepacia, UniProt A0A144VC93)
Assay: microscale thermophoresis
Format: binding

With O=C(O)CCC(=O)C(=O)O [2-oxoglutarate] the Kd was 208 ± 1.42 µM.
